Measurements from patent publication US20190053489A1, “ANTIMICROBIAL COMPOSITION” (NATIONAL UNIVERSITY CORPORATION TOKYO MEDICAL AND DENTAL …, priority 2016, published 2019).

Assays:
[1] = tested on: Pseudomonas aeruginosa NBRC 13275; assay: Proliferation suppression against pseudomonas aeruginosa in a diluted medium (OD600); assay type: cell-based; conditions: diluted 1/2.5 TSB medium with phosphate buffer pH 7.0; complex 0.01%; FIG. 2
Description: (§1) This test employed Pseudomonas aeruginosa NBRC 13275, and this microbe strain was cultured in a normal broth medium at 37° C. for 20 hours. The cultured microbial solution was collected by centrifugation (3000 rpm, 10 minutes), suspended with sterilized water, and then diluted with sterilized water so that the optical density would satisfy OD600=1.0. The resultant was diluted 2000 times (corresponding to 10^6 CFU/ml) to prepare a reaction microbial solution.
Each of the TSB test medium samples was added with 100 μl of reaction microbial solution and was shake cultured under the condition of 37° C. for 48 hours. Here, the TSB test medium samples were prepared using 10 ml of 1/2.5 TSB medium added with 200 μl of 1 M phosphate buffer (pH 7.0), followed by further addition of […]
After that, 3 ml was extracted at time intervals (0, 1, and 2 days), and the optical density was measured at an absorption wavelength of 600 nm. […]

[2] = tested on: Mycobacterium avium Chester JCM15429; assay: Proliferation suppression against pulmonary MAC in a diluted medium (OD600); assay type: cell-based
Description: as §1, with “Mycobacterium avium Chester JCM15429,” for “Pseudomonas aeruginosa NBRC 13275,”, “Middlebrook 7H9” for “normal broth”, “2 weeks.” for “20 hours.”, “OD600 =1.0.” for “OD600=1.0.”
Each of the Middlebrook 7H9 test medium samples was added with 100 μl of reaction microbial solution and was statically cultured under the condition of 37° C. Here, the Middlebrook 7H9 test medium samples were prepared using 10 ml of 1/2.5 Middlebrook 7H9 medium added with
(1) 10 ml of sterilized water, (2) 10 ml of the lysozyme-chitosan complex with a concentration of 0.002% (the concentration after addition was […]), (3) 10 ml of the lysozyme-chitosan complex with a concentration of 0.02% (the concentration after addition was 0.01%), (4) 10 ml of the lysozyme-chitosan complex with a concentration of 0.2% (the concentration after addition was 0.1%), (5) 10 ml of lysozyme alone with a concentration of 0.1% (the concentration after addition was 0.05%), (6) 10 ml of chitosan alone with a concentration of 0.1% (the concentration after addition was 0.05%), and (7) 10 ml of the mixture of lysozyme and chitosan with a concentration of 0.1% (the concentration of each after addition was 0.05%).
After that, 3 ml was extracted at time intervals (0, 5, 7, and 12 days), and the optical density was measured at an absorption wavelength of 600 nm. In addition, 100 μl was extracted when necessary and seeded on the Middlebrook 7H10 agar medium, and the number of colonies produced was observed.

[3] = tested on: Micrococcus luteus bacteria; assay: Heat resistance evaluation by bacteriolytic test; assay type: physicochemical; conditions: 80° C. for 2 hours; ΔOD at 10 minutes with vs without heating; complex 5%, lysozyme 2.5% aqueous solution; FIG. 6(D)
Description: This test is a bacteriolytic test using Micrococcus luteus bacteria being lysozyme-sensitive bacteria. Note that the bacteriolytic activity is an activity specific to lysozyme. Lysozyme is a protein relatively stable against heat. However, it is known that this activity generally decreases considerably for lysozyme heated at 80° C. for 30 minutes.
This test employed an aqueous solution of the lysozyme-chitosan complex with a concentration of 5%, an aqueous solution of lysozyme with a concentration of 2.5%, and an aqueous solution of the mixture of lysozyme and chitosan with a concentration of […]. In addition, Micrococcus luteus bacteria manufactured by Wako Pure Chemical Industries, Ltd. were used as the use bacteria.
First, 1 g of Micrococcus luteus bacteria was weighed on the day before the test, added to 100 ml of physiological saline, and stirred overnight at 4° C. […]
In an optical density meter, 2800 μl of the test microbial solution was set to record OD (0-1) immediately before the addition of the sample. […] Since OD increased here, the highest value OD (0-2) was recorded.
Timer measurement was started after the addition of the sample to record OD at the time of 2, 4, 6, 8, and 10 minutes passed. Each test was carried out twice, and the average was calculated.
With OD for (0-2) being OD at the time of the start, Δoptical density (AOD) at each point was calculated. […]

[4] = tested on: MRSA IID 1677; assay: MRSA-resistant microbe acquisition protocol (microdilution method); assay type: cell-based, Methicillin-Resistant Staphylococcus Aureus (MRSA); conditions: subculture 25 generations; FIG. 12
Description: This test employed MRSA IID 1677, and a resistant microbe acquisition protocol was carried out by use of the microdilution method proposed by Japanese Society of Chemotherapy.

lysozyme-chitosan complex: complex of lysozyme and water-soluble chitosan (molecular weight 14000 Da) bound to each other through the Maillard reaction
proliferation suppression effect against pseudomonas aeruginosa past 24 hours [1]: strong proliferation suppression effect | proliferation suppression effect against pulmonary MAC over 7 days, medium with phosphate buffer ([2]; Middlebrook 7H9 test medium further added with 10 mM phosphate buffer (pH 7.0), FIG. 5): marked proliferation suppression effect | proliferation suppression effect against pulmonary MAC, classified by concentration ([2]; diluted Middlebrook 7H9 medium, complex 0.0010, 0.01%, 0.1% after addition, FIG. 3): increased as the concentration of the lysozyme-chitosan complex increased | proliferation suppression effect against pulmonary MAC over 7 days ([2]; diluted Middlebrook 7H9 medium, complex 0.1% vs lysozyme, chitosan, mixture 0.05% each, FIG. 4): marked proliferation suppression effect | residual activity (bacteriolytic) after heating treatment [3]: 91.9% | change of MIC (minimum inhibitory concentration) on subculture [4]: hardly changed
